Measured values as given in patent US10519193B2, “Steroidal compound, composition containing the same and use thereof” (Shenzhen TargetRx, Inc., priority 2016, dated 2019).

Assays:
[1] = tested on: PSA protein secretion, LNcaP cells; experiment: Inhibition of cellular PSA protein secretion; assay type: cell-based; settings: Homo sapiens, 1 nM DHT, 48 hours, ELISA, read-out: Inhibition of PSA proteins, IC50
Experimental: Experimental steps: 1. The original culture medium was replaced with culture medium containing 10% Charcoal Stripped FBS, and cells were allowed to starve in culture flasks for 24 hours; 2. Cells were digested and counted, and LNcaP cells were seeded into 96-well plates at 10,000 cells/well and incubated overnight; 3. The DHT and compound were added to the existing medium at a set concentration, the final concentration of DHT was 1 nM, the initial concentration of the compound was 50000 nM, 5-fold dilution was carried out, 8 concentration gradients were obtained, and incubation was carried out for 48 hours; 4. Cell culture supernatants were collected and PSA protein levels were measured according to the ELISA kit instructions. IC50 was calculated using GraphPad Prism based on the inhibition rate at each concentration, and the results were shown in Table 2 below.

[2] = Metabolic stability evaluation in human liver microsomes; assay type: in vitro ADME; settings: human liver microsome
Experimental: Experiments in microsomes: Human liver microsomes: 0.5 mg/mL, Xenotech; Coenzyme (NADPH/NADH): 1 mM, Sigma Life Science; Magnesium chloride: 5 mM, 100 mM phosphate buffer (pH 7.4).
Preparation of stock solution: Powder of the example compound was accurately weighed and dissolved in DMSO to 5 mM.
Preparation of phosphate buffer (100 mM, pH7.4): A pre-formulated 0.5M potassium dihydrogen phosphate (150 mL) was mixed with 0.5M dibasic potassium phosphate (700 mL). The pH of the mixture was adjusted to 7.4 with 0.5M dibasic potassium phosphate solution. The mixture was diluted 5-fold with ultrapure water before use, and magnesium chloride was added to obtain a phosphate buffer (100 mM) containing 100 mM potassium phosphate, 3.3 mM magnesium chloride, pH 7.4.
A NADPH regeneration system solution (containing 6.5 mM NADP, 16.5 mM G-6-P, 3 U/mL G-6-P D, 3.3 mM magnesium chloride) was prepared and placed on wet ice prior to use.
Preparation of stop solution: acetonitrile solution containing 50 ng/mL propranolol hydrochloride and 200 ng/mL tolbutamide (internal standard). 25057.5 μL of phosphate buffer (pH 7.4) was taken into a 50 mL centrifuge tube, to which 812.5 μL human liver microsomes were added, and mixed to obtain a liver microsome dilution solution with a protein concentration of 0.625 mg/mL. 25057.5 μL of phosphate buffer (pH 7.4) was taken into a 50 mL centrifuge tube, to which 812.5 μL SD rat liver microsomes were added, and mixed to obtain a liver microsome dilution solution with a protein concentration of 0.625 mg/mL.
Incubation of the samples: The stock solution of the respective compound was respectively diluted to 0.25 mM with an aqueous solution containing 70% acetonitrile, and used as a working solution, ready for use. 398 μL of the dilution solution of human liver microsomes or rat liver microsome were added to a 96-well incubation plate (N=2), respectively, and 2 μL of 0.25 mM working solution was added and mixed.
Metabolic stability assay: 300 μL of pre-chilled stop solution was added to each well of a 96-well deep well plate and placed on ice as a stop plate. The 96 well incubation plate and NADPH regeneration system were placed in a 37° C. water bath box, shaken at 100 rpm and pre-incubated for 5 min. 80 μL of incubation solution was taken out from each well of the incubation plate and added to the stop plate, mixed, and replenished with 20 μL of NADPH regeneration system solution as a 0-min sample. 80 μL of NADPH regeneration system solution was added to each well of the incubation plate to start the reaction and start counting. […] Separately, 100 μL of the reaction solution was taken at 10, 30, and 90 min reaction, respectively, added to a stop plate, and vortexed for 3 minutes to terminate the reaction. The stop plate was centrifuged at 5000×g at 4° C. for 4 min. 100 μL of the supernatant was added to a 96-well plate to which 100 μL of distilled water was previously added, mixed, and analyzed by LC-MS/MS.
Data analysis: The peak areas of the corresponding compound and internal standard were detected by LC-MS/MS system, and the ratio of the peak area of the compound to the internal standard was calculated.

Human CYP17 [3] = target: T1, Human CYP17 (Homo sapiens, UniProt P05093); experiment: CYP17 lyase assay; assay type: biochemical; parameters: made in house; host or cells: HEK293 cells (microsomes); settings: CYP17-HEK293 microsomes, 20 minutes at room temperature; read-out: CYP17 lyase IC50
T1 sequence (P05093 1-508): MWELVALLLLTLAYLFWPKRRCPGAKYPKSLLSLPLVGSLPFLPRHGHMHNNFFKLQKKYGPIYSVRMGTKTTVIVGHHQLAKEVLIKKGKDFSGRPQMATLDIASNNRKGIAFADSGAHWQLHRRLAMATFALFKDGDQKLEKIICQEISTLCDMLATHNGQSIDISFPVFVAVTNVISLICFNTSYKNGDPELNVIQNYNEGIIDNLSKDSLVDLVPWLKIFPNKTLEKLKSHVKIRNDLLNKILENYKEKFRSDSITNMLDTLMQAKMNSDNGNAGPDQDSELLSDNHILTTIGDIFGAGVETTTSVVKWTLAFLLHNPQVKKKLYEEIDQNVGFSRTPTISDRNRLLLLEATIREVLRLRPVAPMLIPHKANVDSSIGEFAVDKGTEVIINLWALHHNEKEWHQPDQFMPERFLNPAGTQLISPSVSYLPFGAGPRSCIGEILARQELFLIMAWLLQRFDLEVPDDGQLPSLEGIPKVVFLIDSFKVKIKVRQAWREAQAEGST
Experimental: Human CYP17 was expressed in HEK293 cells and microsome were prepared, which was subsequently used as a source of enzyme for lyase assays. The reaction includes 200 nM [3H]-hydroxy pregnenolone (ARC), 200 nM 17-hydroxy pregnenolone (Sigma), 2 mM NADPH (Calbiochem), and CYP 17-HEK293 microsomes, which were incubated for 20 minutes at room temperature in the presence of DMSO or a test compound. Compounds were dissolved in DMSO and serially diluted. The reaction was stopped by the addition of 0.2N HCl and the product was captured using an anti-mouse YSi SPA Bead (GE) conjugated anti-DHEA monoclonal antibody (Abcam). The signal intensity determined by Packard Top Count was used to calculate the percent inhibition and IC50 values.

Human CYP17 [4] = target: T1, Human CYP17; experiment: CYP17 hydroxylase assay; assay type: biochemical; parameters: made in house; host or cells: E. coli (membrane preparation); settings: hCYP17 E. coli membrane, 25 μM pregnenolone, 37° C. 120 minutes; read-out: CYP17 hydroxylase IC50
Experimental: E. coli was transformed to express active human CYP17, and a membrane prepared from the transformed E. coli was used as a source of the enzyme. […] The reaction mixture was incubated at 37° C. for 120 minutes and 200 μL of 0.02 N HCl in acetonitrile was added to stop the reaction. The sample was then spun at […] and 200 μL of the supernatant was transferred to a clean tube for determination. The reaction product 17-alpha pregnenolone was measured by LC/MS.

[5] = human liver microsomes, pH 7.4, 1 μM compound, 0.5 mg/mL protein

## [2H]c1ccc(C2=CCC3C4CCC5=CC(=O)CC[C@]5(C)C4CC[C@]23C)cn1 (stereo partly drawn) [Example 12, (3β)-17-(3-pyridyl-6-d)androst-4,16-dien-3-one]
[1]
  IC50: < 10 nM
[2]; in words
  clearance compared to the non-deuterated compound: reduced
  half-life compared to the non-deuterated compound: prolonged
[2]; [5]
  half-life at 1 μM: 3.4 min
  microsomal CLint at 1 μM: 408 µL/min/mg
Human CYP17 [3]
  IC50: < 10 nM
Human CYP17 [4]
  IC50: < 20 nM

## [2H]c1cncc(C2=CCC3C4CCC5=CC(=O)CC[C@]5(C)C4CC[C@]23C)c1 (stereo partly drawn) [Example 11, (3β)-17-(3-pyridyl-5-d)androst-4,16-dien-3-one]
[1]
  IC50: < 10 nM
Human CYP17 [3]
  IC50: < 10 nM
Human CYP17 [4]
  IC50: < 20 nM
